Paper PMC11470957, “Principles of paralog-specific targeted protein degradation engaging the C-degron E3 KLHDC2” (Nature Communications, 2024)

Target: T1, KLHDC2^SBD (Homo sapiens, UniProt Q9Y2U9)
T1 sequence (Q9Y2U9 15-361): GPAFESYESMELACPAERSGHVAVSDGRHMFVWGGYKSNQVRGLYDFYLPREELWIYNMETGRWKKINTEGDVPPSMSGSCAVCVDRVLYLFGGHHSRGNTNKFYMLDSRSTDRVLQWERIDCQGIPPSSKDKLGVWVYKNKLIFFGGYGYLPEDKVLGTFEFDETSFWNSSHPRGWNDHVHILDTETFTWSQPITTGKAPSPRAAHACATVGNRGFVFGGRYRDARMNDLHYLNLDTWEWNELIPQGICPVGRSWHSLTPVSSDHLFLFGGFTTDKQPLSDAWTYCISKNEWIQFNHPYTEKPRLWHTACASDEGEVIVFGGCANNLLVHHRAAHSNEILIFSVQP
Experiment: Thermal shift assay (Sypro Orange) probing stabilization of KLHDC2^SBD
Type: binding
Design: KLHDC2^SBD (15-361) and its Avi-tagged counterpart were expressed in E. coli Rosetta2 cells; 6XHis-MBP (N, cleaved yes); made in house; host or cells: E. coli Rosetta2
Settings: for ΔTm at 50 µM: read-out: ΔTm at 50 µM; for Thermal shift ΔTm: KLHDC2^SBD, ligand concentration not given
Method: In an attempt to identify non-peptide ligands that target KLHDC2’s substrate binding domain (SBD), we developed a thermal shift assay probing for stabilization of KLHDC2^SBD upon ligand addition. […] We utilized the thermal shift assay to screen ~ 9,000 molecules from a diverse collection of lead-like molecules (Figs. 1b, S1a, Supplementary Table 1).
Experimental compounds (200 nl each) were dispensed into a 384-well PCR plate using the Labcyte ECHO 655 T. The assay solution, comprising 0.5 μM KLHDC2, 25 mM HEPES, 200 mM NaCl, and 5% Sypro Orange at pH 7.5, was added to achieve a final volume of 20 μl. Negative control wells contained only DMSO, while positive control wells contained a di-Gly substrate peptide derived from SELK. Fluorescence measurements of Sypro Orange in each sample were taken using a Quantstudio 5 or Quantstudio 6, with temperatures ranging from 23 to 75 °C at a rate of 0.05 °C/s. Data analysis involved calculating thermal stability using the Boltzmann and first derivative minima equations in Thermo Scientific Protein Thermal Shift software v1.4. The resulting data were uploaded to CDD Vault for further analysis.
The 8892-compound lead-like one library was screened for its ability to stabilize KLHDC2 using a sypro orange-based thermal stability single-point assay.
Supplementary Ta b l e 1. Small molecule screening data
Category Parameter Description
Assay Ty p e o f assay Thermal Stability Screen
Primary measurement RFU of Sypro Orange
Key reagents Sypro Orange
Assay protocol Experimental compounds (200nl each) were dispensed into […]
a 384-well PCR plate using the Labcyte ECHO 655T. The […]
assay solution, comprising 0.5µM KLHDC2, 25mM HEPES,
200mM NaCl, and 5% Sypro Orange at pH 7.5, was added […]
to achieve a final volume of 20μl. Negative control wells […]
contained only DMSO, while positive control wells […]
contained peptide sub2. Fluorescence measurements of
Sypro Orange in each sample were taken using a
Quantstudio 5 or Quantstudio 6, with temperatures ranging […]
from 23 to 75°C at a rate of 0.05°C/second. Data analysis […]
involved calculating thermal stability using the Boltzmann […]
and first derivative minima equations in Thermo Scientific
Protein Thermal Shift software v1.4. The resulting data […]
were uploaded to CDD Vault for further analysis.
Library Library size 10041
Library composition The library was curated from compounds cherry picked […]
from St. Jude’s collection, representative of 80% of the […]
entire collection based on scaffold diversity (2D Molecular […]
fingerprinting based clustering) and structural properties: […]
lipophilicity (cLogP<3), size (MW 200-300 Da), and no […]
structural alerts (PAINS).
Source The compound collection was curated from multiple […]
vendors and stored on-site.
Screen Format The assay was completed in 26 384 well plates
Concentration(s) tested Compounds were tested at 100µM, and then a 16-point […]
serial dilution was performed on select compounds.
Plate controls DMSO as negative control and peptide sub2 as positive […]
Reagent/ compound dispensing system Multidrop Combi and Labcyte ECHO 655T […]
Detection instrument and software Quant Studio 5 and Quant Studio 6 and Thermo Scientific […]
Protein Thermal Shift software v1.4
Correction factors No correction factors were applied.

Thermal shift ΔTm [°C]	SMILES	ΔTm at 50 µM [°C]
	O=C(O)CNC(=O)Cc1csc(-c2ccccc2F)n1 [SJ6145]	1.1 ± 0.03
	COCOc1ccc(-c2nc(CC(=O)NCC(=O)O)cs2)c(Cl)c1 [SJ10278]	3.5 ± 0.3
6.0	O=C(O)CNC(=O)Cc1csc(-c2ccc3ccccc3c2)n1 [SJ46411]	
4.3	COCCOc1cccc2ccc(-c3nc(CC(=O)NCC(=O)O)cs3)cc12 [SJ46418]	
